Source: patent US20230381142A1, “ANTILEISHMANIAL COMPOUNDS, COMPOSITIONS AND USE THEREOF” (TRUSTEES OF BOSTON UNIVERSITY, priority 2022, published 2023)
Marks after values point to notes of the source that are not given here.

Assays:
B10R cells = assay: UCSD infection assay, host cell cytotoxicity (CC50); type: cell-based; details: host B10R cells
[1] = GSK inMac assay, host cell toxicity readout (LD MAC); type: cell-based, human; details: human; footnote c; read-out: THP-1 Host Cell CC50
How it was run: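 Intramacrophage L. donovani assay in THP-1 macrophages; host toxicity taken from host cell number per well, giving MAC EC50. Run alongside amastigote-per-cell and infected-cell readouts in the same wells.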

[2] = system: L. donovani intracellular amastigotes in B10R cells; assay: UCSD L. donovani infection assay (Assay Conditions D); type: cell-based; details: B10R cells
How it was run: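 B10R cells (300/well) infected with stationary-phase L. donovani WT promastigotes at 20 parasites/cell in DMEM high-glucose, 5% FBS, with compounds 72 h at 37° C., 5% CO2. Formaldehyde-fixed, DAPI-stained, imaged by high-content microscopy; 10-point 2-fold dilutions (screen at 10 μM) gave EC50 and host CC50.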

[3] = UCSD infection assay, host cell cytotoxicity (CC50); type: cell-based; details: mouse, B10R host cells infected with L. donovani; footnote d
[4] = system: L. major (strain Friedlin) in J774 cells; assay: J774 luciferase infection assay (Assay Conditions E); type: cell-based, Leishmania major; details: values marked e
Procedure: Assay Conditions E: J774 cells (ATCC J774A.1 were grown in DMEM supplemented with 10% Fetal Bovine Serum (FBS) and 1% Penicillin-Streptomycin at 37° C. in 5% CO2. Leishmania parasites expressing luciferase and GFP were grown as described in Front. Cell. Infect. Microbiol (2019) 9:237. J774 cells were seeded in microwell plates at 3×10^5 cells/mL density. Cells were washed with PBS and incubated with complete DMEM medium containing stationary phase Leishmania promastigotes (L. major: strain Friedlin; L. braziliensis, strain BA788) at a 1:10 parasite-cell ratio for 24 h. Cells were washed with PBS. Cells and compounds were incubated for 48 h at 37° C. and 5% C02. Compounds were tested in 8-point 2-fold serial dilution in 4 technical replicates, and 2 biological replicates. After 48 h, OneTiterGlo (Promega) (100 μl) was added to each well. Plates were incubated for 15 min and bioluminescence was measured using a plate reader (Molecular Devices). Effective concentration inducing 75% activity (EC75) was calculated using GraphPad Prism Software (version 9.0).

[5] = system: L. braziliensis (strain BA788) in J774 cells; assay: as above; type: cell-based, Leishmania braziliensis; details: footnote e
How it was run: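 J774A.1 macrophages infected 24 h with luciferase/GFP-expressing stationary-phase promastigotes (L. major Friedlin or L. braziliensis BA788, 1:10 parasite:cell), washed, then exposed 48 h at 37 °C, 5% CO2 to 8-point 2-fold dilutions. OneTiterGlo bioluminescence read; EC75 calculated.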

[6] = system: L. braziliensis-infected macrophages; assay: Macrophage (BMDM) infection with L. braziliensis and exposure to CMLDs; type: cell-based, Leishmania braziliensis
Procedure: Leishmania braziliensis (MIHOM/BR/00/BA788) and L. major (Friedlin) promastigotes were maintained in Schneider's medium (SIGMA) supplemented with 10% heat-inactivated FCS, 100 U/ml penicillin, 100 μg/ml streptomycin (all from Invitrogen).
BMDM were obtained as described above. Cells were resuspended in DMEM medium supplemented with 100 U/mL penicillin, […] streptomycin, and 10% heat-inactivated Fetal Bovine Serum (all from Invitrogen) and seeded at a density of 3×10^5 cells per well in 24-well culture plates. Monolayers received 3×10^6 cells L. braziliensis promastigotes and were incubated at 37° C. in supplemented DMEM medium for 24 h. Infected macrophages were then washed to remove non-internalized parasites. Compounds CMLD 011128, CMLD010947, CMLD010498, and CMLD011494 were added at different concentrations. After 24 hours, cells were extensively washed, fixed and stained with hematoxylin and eosin (H&E). The number of infected cells and of intracellular amastigotes were counted by optical microscopy in 200 macrophages. Positive controls consisted of cultures treated with Amphotericin B (0.25 μg/mL, Invitrogen). Cultures were performed in quintuplicate. Alternatively, infected macrophages were treated as described, monolayers were extensively washed and the medium was replaced by 0.5 ml of supplemented Schneider medium. Cells were cultured for seven additional days at 26° C., when number of viable promastigotes was determined using hemocytometer.
Results were expressed as the mean percentage reduction of infected cells compared with untreated control wells. Half-maximal effective concentrations (EC50) were determined by sigmoidal regression curves using Prism 7.0 software (GraphPad Software Inc.)

[7] = system: L. major-infected murine macrophages; assay: Macrophage infection with L. major and exposure to CMLDs; type: cell-based, Leishmania major
[8] = system: macrophages from bone marrow; assay: Cellular viability of macrophages (Cell Titer Glo); type: cell-based, murine; details: 500-1000 nM, 24 h
Procedure: Briefly, macrophages were obtained from bone marrow and seeded at a density of 1×10^6 cells per well in 24-well culture plates. After 2 hours, cells were treated with compounds at two concentrations (500 and 1000 nm) for 24 hours. Cell viability was determined using Cell Titer Glo (Promega), according to manufacturer's instructions. For positive control, pararosaniline chloride was used.

[9] = system: L. donovani intracellular amastigotes infecting THP-1 macrophages; details: GlaxoSmithKline Phase I VL candidates; read-out: intramacrophage EC50; cited from earlier work
[10] = L. major, only observed at the highest dose (1 μM)

Compound: COc1ncccc1C1c2c(CC(C)C)n[nH]c2C(=O)N1c1ccc2ncnn2c1 (stereo not drawn) [BUCMD00162]
- B10R Host Cell CC50 (B10R cells): >10 µM

Compound: COc1cc(F)ccc1C1c2c(CC(C)C)n[nH]c2C(=O)N1c1ccc(Br)cc1 (stereo not drawn) [CMLD011494]
- CC50 [1]: 4 µM
- L. donovani amastigotes EC75 (B10R cells) ([2]; footnote d): 0.1 µM
- EC50 ([2]; Leishmania donovani, values marked d, read-out: L. donovani amastigotes EC50 (B10R cells)): 0.1 µM
- CC50 at 72 h [3]: 3.98 µM
- L. major amastigotes EC75 (J774 cells) [4]: 2.8^e μM
- L. braziliensis amastigotes EC75 (J774 cells) [5]: 5.2 µM
- leishmanicidal effect on L. braziliensis infection in vitro [6]: reduces L. braziliensis infection
- number of amastigotes per 100 macrophages ([6]; L. braziliensis, 24 h exposure): significantly reduced
- percentage of infected macrophages ([6]; L. braziliensis, 24 h exposure): significantly reduced
- number of viable promastigotes after exposure of infected BMDM ([6]; L. braziliensis, culture in Schneider medium): significantly reduced
- EC50 ([6]; Leishmania braziliensis, Macrophage, 24 h exposure, percentage of infected macrophages, read-out: EC50 against L. braziliensis-infected macrophages): 1.64 µM
- L. major infection in vitro [7]: reduce L. major infection
- number of intracellular amastigotes [7, 10]: significant decreased
- percentage of infected cells [7, 10]: significant decreased
- cell viability of macrophages [8]: did not change cell viability

Compound: C[C@H]1CN(c2n[nH]c3nc(N[C@H]4CC[C@H](NS(=O)(=O)CCC(F)(F)F)CC4)ncc23)CCO1 [GSK3186899]
- EC50 [9]: 1.4 µM

Compound: O=C(Nc1ccc(F)c(-c2ccn3c(N4CCOCC4)cnc3n2)c1)N1CCCC1 [GSK3494245]
- EC50 [9]: 1.6 µM
